Assay results published in article PMC5769417, “Single- and Multiple-Dose Trials to Determine the Pharmacokinetics, Safety, Tolerability, and Sex Effect of Oral Ginsenoside Compound K in Healthy Chinese Volunteers” (Frontiers in Pharmacology, 2018).

Test system: healthy Chinese volunteers
Experiment: Multiple-dose trial, safety and tolerability (adverse events)
Type: in vivo, human
Description: Multiple-dose pharmacokinetics: The multiple-dose trial could be carried out on the condition that a single-dose of CK (25–800 mg) was safe and well tolerated in healthy Chinese volunteers. After breakfast, one of three doses (100, 200, or 400 mg) of CK or placebo were given to 36 eligible subjects randomized to each dose (male:female = 1:1), in which 10 were on active treatment and 2 were on matching placebo. CK were administered as a single dose on day 1 and then as repeated doses for 9 consecutive days (days 7–15 of the trial), and the drug was administered once-daily in the morning after meals.
Safety was evaluated by continuous observation of adverse events (AEs), monitoring of vital signs, ECG, hematology, biochemistry, and urinalysis at baseline, during the trials at the set time points following drug administration, and at follow-up visits after study completion. AEs were classified by their intensity into mild, moderate and severe. Additionally, the AEs were also classified according their relationship to the test drug as positive, probable, possible, remote, or unrelated. The severity of the AEs, as well as their relationship to test drug, was assessed by a qualified physician in the unit. Clinically relevant changes in vital signs, ECG and laboratory parameters were defined as marked abnormalities. ECG were recorded in the semisupine position after a rest of at least 5 min. It is worth noting that all the information, including symptoms and signs after dosing or the medications that the subjects were concomitantly taking must be recorded on the case-report form by investigators. All available data from subjects who received the test drug and placebo were included in the summaries of the safety data and were descriptively analyzed. In addition, the differences between laboratory parameters at baseline and after drug treatment were analyzed to determine whether there were clinical significances.
All the safety data, including vital signs, laboratory indexes and ECG, were descriptively analyzed, and the statistical analyses were conducted to evaluate the effects of the test drug by comparing the differences between before and after drug treatment, between the test drug group and the placebo group and among the different dose groups.

For `CC(C)=CCC[C@](C)(OC1O[C@H](CO)[C@@H](O)[C@H](O)[C@H]1O)[C@H]1CC[C@]2(C)[C@@H]1[C@H](O)C[C@@H]1[C@@]3(C)CC[C@H](O)C(C)(C)[C@@H]3CC[C@]12C` (stereo partly drawn) [CK, 20-O-beta-D-glucopyranosyl-20(S)-protopanaxadiol], the “AEs positively relevant to CK” value was 20 cases, the “AEs possibly related to CK” value was 14 cases and the “AEs probably related to CK” value was 23 cases. For the same molecule, the “Alkaline phosphatase increased (study drug-related AE)” value (from here on “Alkaline phosphatase increased”) (100 mg (n = 10)) was 0 number of subjects (%), the “Any AEs (study drug-related)” value (100 mg (n = 10)) was 7 (19.4) number of subjects (%) and the “Bellyache (study drug-related AE)” value (100 mg (n = 10)) was 0 number of subjects (%). For the same molecule, the “Blood white cells increased (study drug-related AE)” value (shortened to “Blood white cells increased”) (100 mg (n = 10)) was 0 number of subjects (%), the “Diarrhea (study drug-related AE)” value (100 mg (n = 10)) was 3 (8.3) number of subjects (%) and the “Direct bilirubin increased (study drug-related AE)” value (“Direct bilirubin increased” for short) (100 mg (n = 10)) was 2 (5.6) number of subjects (%). The “Dizziness (study drug-related AE)” value (100 mg (n = 10)) was 4 (11.1) number of subjects (%), the “Headache (study drug-related AE)” value (100 mg (n = 10)) was 0 number of subjects (%) and the “Loss of appetite (study drug-related AE)” value (100 mg (n = 10)) was 2 (5.6) number of subjects (%). The “Nausea (study drug-related AE)” value (100 mg (n = 10)) was 1 (2.8) number of subjects (%), the “Rash (study drug-related AE)” value (100 mg (n = 10)) was 0 number of subjects (%) and the “Subcutaneous bleeding (double forearm) (study drug-related AE)” value (shortened to “Subcutaneous bleeding (double forearm)”) (100 mg (n = 10)) was 0 number of subjects (%). For the same molecule, the “Total bilirubin increased (study drug-related AE)” value (“Total bilirubin increased” below) (100 mg (n = 10)) was 0 number of subjects (%), the “Alkaline phosphatase increased” value (200 mg (n = 10)) was 1 (2.8) number of subjects (%) and the “Any AEs (study drug-related)” value (200 mg (n = 10)) was 10 (27.8) number of subjects (%). For the same molecule, the “Bellyache (study drug-related AE)” value (200 mg (n = 10)) was 4 (11.1) number of subjects (%), the “Blood white cells increased” value (200 mg (n = 10)) was 0 number of subjects (%) and the “Diarrhea (study drug-related AE)” value (200 mg (n = 10)) was 9 (25) number of subjects (%). For the same molecule, the “Direct bilirubin increased” value (200 mg (n = 10)) was 1 (2.8) number of subjects (%), the “Dizziness (study drug-related AE)” value (200 mg (n = 10)) was 1 (2.8) number of subjects (%) and the “Headache (study drug-related AE)” value (200 mg (n = 10)) was 0 number of subjects (%). The “Loss of appetite (study drug-related AE)” value (200 mg (n = 10)) was 0 number of subjects (%), the “Nausea (study drug-related AE)” value (200 mg (n = 10)) was 0 number of subjects (%) and the “Rash (study drug-related AE)” value (200 mg (n = 10)) was 0 number of subjects (%). The “Subcutaneous bleeding (double forearm)” value (200 mg (n = 10)) was 0 number of subjects (%), the “Total bilirubin increased” value (200 mg (n = 10)) was 1 (2.8) number of subjects (%) and the “Alkaline phosphatase increased” value (400 mg (n = 10)) was 0 number of subjects (%). For the same molecule, the “Any AEs (study drug-related)” value (400 mg (n = 10)) was 9 (25) number of subjects (%), the “Bellyache (study drug-related AE)” value (400 mg (n = 10)) was 1 (2.8) number of subjects (%) and the “Blood white cells increased” value (400 mg (n = 10)) was 0 number of subjects (%). The “Diarrhea (study drug-related AE)” value (400 mg (n = 10)) was 9 (25) number of subjects (%), the “Direct bilirubin increased” value (400 mg (n = 10)) was 5 (13.9) number of subjects (%) and the “Dizziness (study drug-related AE)” value (400 mg (n = 10)) was 0 number of subjects (%). For the same molecule, the “Headache (study drug-related AE)” value (400 mg (n = 10)) was 0 number of subjects (%), the “Loss of appetite (study drug-related AE)” value (400 mg (n = 10)) was 0 number of subjects (%) and the “Nausea (study drug-related AE)” value (400 mg (n = 10)) was 0 number of subjects (%). For the same molecule, the “Rash (study drug-related AE)” value (400 mg (n = 10)) was 0 number of subjects (%), the “Subcutaneous bleeding (double forearm)” value (400 mg (n = 10)) was 1 (2.8) number of subjects (%) and the “Total bilirubin increased” value (400 mg (n = 10)) was 3 (8.3) number of subjects (%).
